# Source: publication PMC3056768, “Conjugation to the Cell-Penetrating Peptide TAT Potentiates the Photodynamic Effect of Carboxytetramethylrhodamine” (PLoS ONE, 2011)
# “Also recorded” adds a separate entry of the source. Read-outs that look alike come from different tables or passages of the source.
# How the values were obtained:
# HeLa cells [1] = assay: Photosensitization of extracellular peptide at 4°C (endocytosis blocked); format: cell-based, human; details: 3 µM, 4°C to block endocytosis, irradiated at 560 nm with compound still in the media
# Procedure: (§1) HeLa (human cervical adenocarcinoma), COS-7 (SV40 transformed African green monkey kidney fibroblast-like cell line) were obtained from ATCC. COLO 316 (human ovarian carcinoma) were obtained from Robert Burghardt (Department of Veterinary Integrative Biosciences, Texas A&M University). Cells were cultured in DMEM supplemented with 10% fetal bovine serum (FBS) and maintained at 37°C in a humidified environment with 5% CO2. Cells were plated in 8-well dishes so that the cells were 70% confluent after 24 h, washed 3 times with L-15 media, incubated with 3 to 10 µM peptides at 37°C for 1 h, washed 3 times with L-15, and imaged. Alternatively, cells were incubated in L-15 at 4°C to inhibit the endocytic uptake of peptides. In this case, cells were imaged with the peptide still present in solution and the low temperature was maintained for the entire duration of imaging. For photosensitization, cells were exposed to light (λex = 560±20 nm) for the indicated time points. Plasma membrane disruption was detected by addition of the cell-impermeable DNA stain SYTOX Blue (5 µM) during or after photosensitization.
# It is therefore possible that the endosomal release observed in the experiments of Figure 1 might be necessary to cause cell death. To investigate whether this is the case, we examined if light-induced cell-death could be observed when the peptides were only localized at the plasma membrane of cells. For these experiments, HeLa cells were first incubated with the peptides (3 µM) at 4°C to block endocytosis. Cells were then irradiated with the peptides still present in the media (the peptide is not retained at the plasma membrane when cells are washed). […] Cells were then washed and observed by fluorescence imaging. […] On the other hand, the membrane damage and cell death obtained after TMR-TAT photosensitization were also observed when hematoporphyrin (HP) or hematoporphyrin derivative (HPD) were used (Fig. 4B). […]
# red blood cells (RBCs) = format: cell-based
# Procedure: Supplementary file pone.0017732.s005.tif: Figure S5 A) Photohemolysis of RBCs with TMR-TAT. Short light exposure tat 560 nm to RBCs incubated with TMR-TAT (3 µM) causes lysis and formation of ghost cells as observed by bright field imaging. Lysis of more than 90% of the cells can be achieved when light exposure is increased. Initially, the ghosts formed appear to have a constant diameter as shown in the images corresponding to exposure at 20 J/cm^2 and 60 J/cm^2. As light exposure is increased, the ghosts shrink to a much smaller diameter (120 J/cm^2 image). This shrinkage was not observed when the ghosts formed by irradiation with 60 J/cm^2 of light were incubated without additional light irradiation (data not shown). […] The RBCs were then spun down at low speed and the supernatant was removed from the pelleted cells. Cells were rapidly washed with cold PBS (4°C) and spun down twice. Images are the bright field and TMR confocal fluorescence images before and after washing of the RBCs. During incubation, the interior of RBCs display a dark contrast when compared to the fluorescent peptide present in solution. After washing the cells, no appreciable TMR fluorescence could be detected. It is important to note that RBCs have a weak autofluorescence signal in the TMR channel. […]
# HeLa cells [2] = assay: Photo-induced endosomal release (fluorescence imaging); format: cell-based, human
# Procedure: as §1
# Ten to twenty images were acquired for each experiment.
# The effect of light irradiation on cells that have endocytosed TMR-TAT was first investigated. HeLa cells were incubated in the presence of TMR-TAT (3 µM) for 1 hour at 37°C. After washing the cells, the sample was placed on a microscope and the cellular distribution of the peptide was assessed by fluorescence imaging. […] Within seconds, the content of many endosomes was released into the cell and the peptides were distributed throughout the cell. The peptide also accumulated at the nucleoli, a known effect of TAT [7]. […] The viability of non-irradiated cells was, in contrast, not affected by TMR-TAT (Fig. 2B); we found the cytotoxicity of the peptide to be negligible in the absence of light at concentrations up to 25 µM (supporting information Fig. S1).
# HeLa cells [3] = assay: Photo-induced activity as a function of time in the endocytic pathway (endocytic degradation); format: cell-based, human; details: 3 µM 1 h, washed, read-out of endocytic degradation
# Procedure: One would expect that TMR-TAT would accumulate within late endosomes and lysosomes over time and that the TAT moiety might be degraded by proteases present in these organelles. If TAT is required for the lytic activity of TMR-TAT, degradation of the peptide should therefore abolish the activity of the compound. On the other hand, riTAT should be resistant to proteolysis and its lytic activity should not be dependent on the incubation time. HeLa cells were treated with TMR-TAT or TMR-riTAT for 1 hour to allow for endocytosis. The cells were then washed and incubated for an additional 1, 4, or 8 hours in L-15 media to allow for the accumulation of the endocytosed peptides into late endosomes and lysosomes. The cells were then observed under the microscope and treated with light as described in the previous paragraph.
# Figure 3 Degradation of TMR-TAT in endocytic organelles abolishes photo-induced endosomal release and photocytotoxicity. HeLa cells were incubated with TMR-TAT or TMR-riTAT (3 µM) for 1 h, washed, and incubated at 37°C for an additional 1, 4 or 8 hours. […] The histogram represents the average percentage of cells stained by SYTOX® Blue after peptide and light treatment (the number of cells examined is at least 3000) and the error bars represent the standard deviation (experiments were reproduced at least 3 times).
compound,measurement,setting,value
CN(C)c1ccc2c(c1)Oc1cc(N(C)C)ccc1C21OC(=O)c2cc(C(=O)NCC(=O)N[C@@H](CCCNC(=N)N)C(=O)N[C@@H](CCCCN)C(=O)N[C@@H](CCCCN)C(=O)N[C@@H](CCCNC(=N)N)C(=O)N[C@@H](CCCNC(=N)N)C(=O)N[C@@H](CCC(N)=O)C(=O)N[C@@H](CCCNC(=N)N)C(=O)N[C@@H](CCCNC(=N)N)C(=O)N[C@@H](CCCNC(=N)N)C(=O)NCC(N)=O)ccc21 [TMR-TAT],light-induced cell death with peptide only extracellular,HeLa cells [1],"dramatic cytoplasmic extrusion, membrane blebbing, shrinkage and cell death"
same,penetration into RBCs,"red blood cells (RBCs); 10 µM in PBS for 1 hour, washed with cold PBS, confocal fluorescence",does not penetrate RBCs to a large extent
same,penetration into RBCs,red blood cells (RBCs); 1 to 5 µM,do not penetrate RBCs
same,endosomal release on exposure to light of wavelengths not absorbed by TMR,HeLa cells [2]; e.g. 436 or 470 nm,No endosomal release
same,photo-induced endosomal release (photoendosomolytic activity) at 560 nm,"HeLa cells [2]; incubation 1 h 37°C (3 µM; TMR-K9 10 µM), washed, irradiated at 560±20 nm",release of the fluorescent peptides from endosomes into the cytosol; also recorded: escape of TMR-TAT from endocytic organelles into the cytosol
same,photo-induced endosomal release and cell-death after additional incubation,HeLa cells [3]; additional 1 hour at 37°C in L-15 before irradiation,observed
same,photo-induced endosomal release and cell-death after additional incubation,HeLa cells [3]; additional 4 h at 37°C in L-15 before irradiation,reduced
same,photo-induced endosomal release and cell-death after additional incubation,HeLa cells [3]; additional 8 h at 37°C in L-15 before irradiation,completely abolished
